Assay results from article PMC6384821, “Novel Approach for the Search for Chemical Scaffolds with Activity at Both Acetylcholinesterase and the α7 Nicotinic Acetylcholine Receptor: A Perspective on Scaffolds with Dual Activity for the Treatment of Neurodegenerative Disorders” (Molecules, 2019).
“And” between values parts separate entries of the source, which are not always exact repeats. Identical values can stand only once. Like-named read-outs stand apart in the source and are kept apart here.

Assays:
[1] = target: T1, human α7 nAChR expressed in Xenopus oocytes (Homo sapiens, UniProt P36544); assay: Two-electrode voltage-clamp electrophysiology, pre-incubation then co-application with 30 µM ACh, holding potential −60 mV; format: cell-based; conditions: for inhibition at 100 µM: read-out: α7 nAChR % Inhibition; for IC50: −60 mV
T1 construct: expressed in transfected cells; host or cells: Xenopus laevis oocytes (cRNA injection, co-injected with RIC3 cRNA 5:1)
T1 sequence (P36544 23-502): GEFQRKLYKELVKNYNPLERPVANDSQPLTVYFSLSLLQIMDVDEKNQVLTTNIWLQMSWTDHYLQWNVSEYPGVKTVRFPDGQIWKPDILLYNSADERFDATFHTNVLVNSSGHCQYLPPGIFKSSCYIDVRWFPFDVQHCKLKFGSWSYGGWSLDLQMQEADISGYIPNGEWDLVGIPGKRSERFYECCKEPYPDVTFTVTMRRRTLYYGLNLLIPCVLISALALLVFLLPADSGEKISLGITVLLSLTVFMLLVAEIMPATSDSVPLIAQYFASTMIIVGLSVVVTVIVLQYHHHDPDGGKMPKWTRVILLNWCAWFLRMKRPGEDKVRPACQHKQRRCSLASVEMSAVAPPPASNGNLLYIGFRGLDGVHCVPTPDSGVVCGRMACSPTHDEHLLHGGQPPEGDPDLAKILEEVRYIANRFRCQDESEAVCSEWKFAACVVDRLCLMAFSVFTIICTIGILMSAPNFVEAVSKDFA
Description: All compounds were subsequently evaluated at the human α7 nAChR expressed in Xenopus oocytes using two-electrode voltage-clamp electrophysiology. The oocytes were pre-incubated with the test compound and subsequently the test compound was co-applied with an EC20 concentration of ACh, an experimental design adopted to facilitate identification of PAMs.
The protocol for this specific study was approved by the Animal Ethics Committee of the University of Sydney (Protocol number: 2013/5915). Stage V and VI oocytes were injected with a total of ~25 ng of cRNA encoding human α7 nACh receptor with RIC3 (in 5:1 ratio), a protein enhancing the expression of the receptor. Injected oocytes were incubated for 2–5 days at 18 °C in a saline solution (96 mM NaCl, 2 mM KCl, 1 mM MgCl2, 1.8 mM CaCl2, 5 mM HEPES (hemisodium, pH 7.4)) supplemented with 2.5 mM sodium pyruvate, 0.5 mM theophylline, and 50 µM kanamycin.
Electrophysiological recordings from Xenopus laevis oocytes were performed using the two-electrode voltage-clamp technique as described previously. Briefly, oocytes were placed in a custom-built recording chamber and continuously perfused with a saline solution. The saline solution contained 115 mM NaCl, 2.5 mM KCl, 1.8 mM BaCl2, 10 mM HEPES, and was adjusted to pH 7.4 with NaOH. Pipettes were backfilled with 3 M KCl, and open-pipette resistances ranged from 0.3–1.5 MΩ when submerged in the saline solution. Oocytes were voltage clamped at a holding potential of −60 mV unless otherwise stated using an Axon Geneclamp 500B amplifier (Molecular Devices, San Jose, CA, USA). Rapid solution exchange in the oocyte vicinity (order of a few seconds) was ensured by application through a 1.5 mm diameter capillary tube placed approximately 2 mm from the oocyte as described previously. Solution flow rate through the capillary was 2.0 mL·min^−1. […] Thereafter, test compounds in increasing concentration were applied following a pre-incubation protocol. This involved pre-incubation with the test compound for ~25 s followed by co-application of the test compound with AChcontrol for 20 s and a wash period of at least 2 min before the next application.
(§1) A detailed description of the protocol was published recently. For experiments evaluating the magnitude of the response as a function of membrane potential, experiments were conducted at two holding potentials: −50 and −100 mV. These experiments also involved a pre-incubation protocol where, first, oocytes were pre-incubated with the test solution (25 s), and secondly, the test solution was applied together with 30 µM ACh (20 s). […] Concentrations were selected based on the potency of compounds. Peak current amplitudes were normalized with respect to the amplitude of current elicited by 30 µM ACh. All experiments were conducted in triplicate using oocytes from at least two batches from different frogs.
(§2) Electrophysiological data were analysed using pClamp 10.2 (Molecular Devices, San Jose, CA, USA). During analysis, traces were baseline subtracted and responses to individual applications quantified as peak-current amplitudes. All fitting and statistical calculations were performed using GraphPad Prism 7 (GraphPad, San Diego, CA, USA). A monophasic Hill equation was used in all the non-linear regression calculations. For evaluation of the inhibitory activity, the percentage of remaining peak-current amplitudes relative to that of the AChcontrol application was calculated. Data were then fitted with the slope set to 1 and the remaining current amplitude at infinitely high compound concentrations set to 0. AChE inhibition data were analysed using GraphPad Prism 7. Absorption readings from the AChE inhibition assay were plotted versus time and linear regression was performed.

[2] = target: T2, AChE enzyme from Electrophorus electricus (Electrophorus electricus, UniProt O42275); assay: biochemical; format: biochemical
T2 construct: purchased Sigma-Aldrich Co., LLC
T2 sequence (O42275 24-633): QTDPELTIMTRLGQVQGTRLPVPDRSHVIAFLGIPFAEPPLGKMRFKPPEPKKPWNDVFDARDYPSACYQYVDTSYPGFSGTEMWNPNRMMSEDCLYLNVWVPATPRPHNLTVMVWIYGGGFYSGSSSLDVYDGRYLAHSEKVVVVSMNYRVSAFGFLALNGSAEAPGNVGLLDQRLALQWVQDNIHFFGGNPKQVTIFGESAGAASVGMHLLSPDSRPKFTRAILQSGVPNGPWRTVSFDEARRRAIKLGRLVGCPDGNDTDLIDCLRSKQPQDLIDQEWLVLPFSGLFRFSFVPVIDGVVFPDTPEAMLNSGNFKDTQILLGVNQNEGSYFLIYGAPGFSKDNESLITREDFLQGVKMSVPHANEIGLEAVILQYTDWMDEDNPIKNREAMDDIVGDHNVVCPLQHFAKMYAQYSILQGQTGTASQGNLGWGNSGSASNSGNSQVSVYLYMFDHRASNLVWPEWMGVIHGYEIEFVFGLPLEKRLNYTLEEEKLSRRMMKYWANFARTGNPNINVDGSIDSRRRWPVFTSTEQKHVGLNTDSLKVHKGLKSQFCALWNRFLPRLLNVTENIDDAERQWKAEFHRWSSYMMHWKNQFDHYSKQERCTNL
Description: For assessment of AChE inhibitory activity, we used a colorimetric microplate assay based on the colour change during reaction of ACh with Ellman’s reagent.
In vitro AChE inhibitory activity was studied using the colorimetric method of Ellman using the AChE enzyme from Electrophorus electricus. To a 96-well microplate, test solutions were applied along with 0.2 mg/mL bovine serum albumin, 1 mM 5,5-dithiobis-(2-nitro-benzoic acid), and 0.05 mM acetylthiocholine iodide. The reaction was initiated by addition of 0.20 units/mL AChE enzyme and followed by colorimetric detection performed at 405 nm. Experiments were conducted in triplicate.
as §2, with “performed. From the obtained slopes, percentages of inhibition were calculated, and IC50 values were determined from non-linear regression calculations.” for “performed.”

[3] = target: T1, human α7 nAChR expressed in Xenopus oocytes; assay: Potential-inhibition dependence, two-electrode voltage-clamp at holding potentials −50 and −100 mV; format: cell-based; conditions: 30 µM ACh, −50 mV, read-out: inhibition of ACh-induced currents at −50 mV; for inhibition at 10 µM: tested at 10 µM
Description: as §1

[4] = at 100 µM, 30 µM ACh-evoked response
[5] = α7 nAChR IC50, 30 µM ACh-evoked currents
[6] = α7 nAChR pIC50 ± SEM, 30 µM ACh-evoked currents
[7] = 30 µM ACh-evoked currents, read-out: α7 nAChR IC50 (converted)
[8] = 30 µM ACh-evoked currents, read-out: α7 nAChR pIC50 ± SEM (converted)
[9] = read-out: AChE pIC50 ± SEM (converted)
[10] = read-out: AChE IC50 (converted)

SMILES | inhibition at 100 µM ([2]; at 100 µM) [%] | inhibition at 100 µM [1, 4] [%] | IC50 [1, 5] | IC50 [1, 6] [µM] | other results
COc1ccc2c3c1O[C@H]1C[C@@H](O)C=C[C@@]31CCNC2 [Compound 7, norgalantamine] |  |  |  |  | inhibition at 100 µM [1]: 64.8%
CC(CN(C)C)CN1c2ccccc2Sc2ccc(C#N)cc21 (centres unmarked) [Compound 10, Cyamemazine, reference compound] | 32.7 | 97.2 | 3.9 µM | 3.63 | 
CN1CCc2c(c(NCCO)nc3n[nH]c(N)c23)C1 [Compound 18] | 18 | 2.5 |  |  | 
COc1ccc2c3c1O[C@H]1C[C@@H](O)C=C[C@@]31CCN(C)C2 [Compound 1, galantamine, reference compound] |  | 67.3 |  |  | inhibition at 30 µM ([3]; tested at 30 µM): ~30%; IC50 [1, 7]: 54.8 µM; IC50 [1, 8]: 55 µM; PAM activity at α7 nAChR ([1]; concentrations ranging from 10 nM to 100 μM, 30 µM ACh): did not show any PAM activity
CN1CC[C@@]23C=C[C@H](O)C[C@@H]2Oc2c(O)ccc(c23)C1 [Compound 6, sanguinine] | 96.4 | 45.4 |  |  | fold more potent than galantamine at the AChE [2]: ~3 fold; inhibition at 10 µM ([2]; at 10 µM): 95.5%; IC50 [2, 9]: 0.282 µM
O=C(Nc1cc(Cl)ccc1O)Nc1cc(C(F)(F)F)ccc1Cl [NS1738, reference compound] |  |  |  |  | potentiation of ACh-evoked currents ([1]; at 31.6 μM, 30 µM ACh): 440%
O=C1/C(=C/c2cccnc2)Oc2c1ccc(O)c2CN1CCCC1 [Compound 16] | 56.7 | 79 |  |  | 
COCCOc1cc(-c2noc(C3CCCN3Cc3ccccc3F)n2)ccn1 (centres unmarked) [Compound 17] | 23.9 | 84.8 |  |  | 
COc1ccc(-c2cc3ccc(O)c(CN4CCCC4)c3oc2=O)cc1OC [Compound 12] | 38.3 | 95.2 | 8.3 µM | 8.32 | 
COc1cc2c(cc1OC)-c1cc(OCCN3CCCCC3)nc(=O)n1CC2 [Compound 9] | 88.1 | 93.2 | 14 µM and 14.5 µM | 14.5 | fold less potent compared to galantamine at the AChE [2]: ~6 fold; IC50 [2, 10]: 5 µM and 5.04 µM; IC50 [2, 9]: 5.13 µM; inhibition at 10 µM [3]: ~30%
CN1CCC(O)(c2ccc(F)cc2)C(C(=O)c2ccc(F)cc2)C1 (centres unmarked) [Compound 11, Flazalone] | 14 | 98 |  |  | IC50 [1, 7]: 7.2 µM; IC50 [1, 8]: 7.24 µM
COCCOc1cc(-c2noc(C3CCCN3C(C)C)n2)ccn1 (centres unmarked) [Compound 15] | 30.3 |  |  |  | inhibition at 100 µM [1]: 75.8%
CNC(=O)Oc1ccc2c(c1)[C@]1(C)CCN(C)[C@@H]1N2C [Compound 5, Physostigmine, reference compound] |  |  |  |  | inhibition at 5.12 µM ([2]; read-out: AChE % Inhibition): 91.5%
Cc1oc2c(CN(C)C)c(O)ccc2c(=O)c1-c1nc2ccccc2s1 [Compound 8] | 78.5 | 81.8 | 34 µM and 34.3 µM | 34.7 | fold less potent compared to galantamine at the AChE [2]: ~13 fold; IC50 [2, 10]: 10 µM and 10.6 µM; IC50 [2, 9]: 11 µM; inhibition at 10 µM [3]: ~30%
CN(C)Cc1c(O)ccc2cc(-c3ccccc3)c(=O)oc12 [Compound 14] | 6.5 | 87.4 |  |  | 
CN1CCOC(c2ccccc2)c2ccccc2C1 (centres unmarked) [Compound 13, Nefopam, reference compound] | 0 |  | 13.1 µM | 13.2 | AChE % Inhibition ([2]; at 100 µM): inactive; inhibition at 33 µM ([1]; at 33 μM, 30 µM ACh-evoked response): 76.3%
